# Experimental data reported in patent US20160113931A1, “Method of treating and/or preventing neurodegenerative diseases” (University of Macau, priority 2014, published 2016).
# What was measured:
# SH-SY5Y cells [1] = test: Cytotoxicity of BHDPC in SH-SY5Y cells (MTT assay); type: cell-based, human; conditions: BHDPC 3 to 30 μM, 24 h
# Method: The human neuroblastoma SH-SY5Y cells were purchased from America Tissue Type Collection. The cells were maintained in DMEM medium supplemented with 10% fetal bovine serum and penicillin/streptomycin (100 U/mL; 100 μg/mL) in a 37° C., 5% CO2 incubator. All experiments were carried out 48 hours after the cells were seeded.
# (§1) The percentage of surviving cells was estimated by determining the activity of mitochondrial dehydrogenases with 3(4,5-dimethylthiazol-2-yl)-2,5-diphenyltetrazolium bromide (MTT) assay. After drug treatment, cells were incubated at 37° C. for 4 h in 0.5 mg/mL MTT solution. The medium was then removed, and 100 μL of DMSO was added to each well to dissolve the violet formazan crystals. The absorbance of the samples was measured at a wavelength of 570 nm with 655 nm as a reference wavelength. All values were normalized to the control groups.
# To evaluate the cytotoxicity of BHDPC, SH-SY5Y cells were incubated with various concentrations of BHDPC for 24 h and the cell viability was determined using MTT assay.
# SH-SY5Y cells [2] = test: MPP+-induced mitochondrial membrane potential loss (JC-1 assay); type: cell-based, human; conditions: 2 h pre-treatment; for mitochondrial membrane potential (Δφm) compared to the control group: 2 mM MPP+, MPP+ alone 51%
# Method: (FIG. 6A) Δψm was determined by the JC-1 assay.
# JC-1 dye was used to monitor mitochondrial integrity. In brief, SH-SY5Y cells were seeded into black 96-well plates (5×10^3 cells/well). After treatment, the cells were incubated with JC-1 (10 μg/mL in medium) at 37° C. for 15 min and then washed twice with PBS. For signal quantification, the intensity of red fluorescence (excitation 560 nm, emission 595 nm) and green fluorescence (excitation 485 nm, emission 535 nm) were determined using a SpectraMax M5. Mitochondrial membrane potential (Δφm) was calculated as the ratio of JC-1 red/green fluorescence intensity and the value was normalized to the control group.
# Loss of mitochondrial membrane potential and apoptotic nuclei were hallmarks for early and late stage of apoptosis. To determine whether BHDPC could reduce MPP^+-induced mitochondrial membrane potential (Δφm) loss, the Δφm in SH-SY5Y cells was assessed by analyzing the red/green fluorescent intensity ratio of JC-1 staining (FIG. 6A).
# SH-SY5Y cells [3] = test: Effect of PKA inhibitor H89 on BHDPC neuroprotection under MPP+ cytotoxicity; type: cell-based, human; conditions: with H89
# Excerpt: To further confirm the involvement of PKA activation in the protective effects of BHDPC, H89, a PKA inhibitor was used to measure cell survival under MPP^+ cytotoxicity (FIG. 9).
# [4] = test system: oligodendroglial progenitor cells (OPCs); test: LPS-induced OPC death (MTT assay); type: cell-based, rat; conditions: 30 μM BHDPC 2 h, LPS 24 h
# Method: OPCs were incubated with 30 μM BHDPC or 0.1% DMSO (vehicle control) for 2 h followed by the addition or not of 200 μM H2O2 for a further 6 h (FIG. 11A) or LPS (FIG. 11B) for 24 h.
# as §1
# Purified OPC cultures were prepared as described. In brief, primary rat mixed glial cell cultures were isolated from whole brains of postnatal day (P) 2 rats, dissociated into single cells, and cultured into poly-D-lysine (PDL) coated T75 tissue culture flasks. Plating medium consisted of Dulbecco's modified Eagle's medium (DMEM, Invitrogen, Carlsbad, Calif.) supplemented with 10% fetal bovine serum (FBS; Invitrogen, Carlsbad, Calif.), […]. Tissue cultures were maintained at 37° C. in a humidified 5% CO2 incubator, and medium was exchanged every 3 days. […]
# cerebellar tissue slices = test: MPP+-induced cell death in cerebellar tissue slice culture (PI and NeuN staining); type: cell-based, rat; conditions: 30 μM, MPP+ 3 days
# Method: Cerebellar tissue slice were treated with 30 μM BHDPC with or without MPP^+ for 72 h and then were stained with PI.
# Following decapitation, brains of post-natal Day 9-10 SD rat were dissected out and sagittal slices (300 μm) of the cerebellum were immediately cut using a McIlwain tissue chopper, the slices were then isolated in Eagle's medium with Earle's salts medium (MEM) on ice and then placed on Millipore Millicell-CM™ organotypic culture inserts in pre-warmed medium containing MEM, Earle's balanced salt solution, heat-inactivated horse serum, GlutaMAX™, Fungizone®, and penicillin-streptomycin (each from Invitrogen), and glucose (Sigma). […]
# After 3-4 days treatment of MPP^+ together with BHDPC, slices were fixed with 4% paraformaldehyde and then stained by immunohistochemistry. […] Three to four separate slice isolations (about 4-5 pups/isolation) were used, with 3-5 slices analysed from each isolation for each factor and dose.
# Slices were fixed with 4% paraformaldehyde at room temperature for 1 hour, blocked with 5% donkey serum, 0.3% Triton™ X-100, and then incubated in primary antibodies for 2 days at 4° C. […] Confocal z-stacks were acquired (at 1.3 μm intervals and 10-15 images were acquired per stack) with a Leica SPE confocal microscope and images analysed using NIH ImageJ. […]
structure (smiles),measurement,setting,value
"COc1cc(C2C(C(=O)OCc3ccccc3)=C(C)Nc3nnnn32)ccc1O (stereo not drawn) [BHDPC, benzyl 7-(4-hydroxy-3-methoxyphenyl)-5-methyl-4,7-dihydrotetrazolo[1,5-a]pyrimidine-6-carboxylate]","cytotoxicity (cell viability, MTT)",SH-SY5Y cells [1],did not cause any cytotoxicity
same,mitochondrial membrane potential (Δφm) compared to the control group,SH-SY5Y cells [2]; 3 μM,53%
same,mitochondrial membrane potential (Δφm) compared to the control group,SH-SY5Y cells [2]; 10 μM,64%
same,"MPP+-induced mitochondrial membrane potential (Δψm) loss, in words","SH-SY5Y cells [2]; 30 μM, 2 mM MPP+ 36 h",attenuated
same,mitochondrial membrane potential (Δφm) compared to the control group,SH-SY5Y cells [2]; 30 μM,75%
same,neuroprotective effect of BHDPC in presence of PKA inhibitor H89,SH-SY5Y cells [3],abolished
same,LPS-induced cell death,[4],reduced LPS-induced cell death
same,MPP+-induced CNS cells death and neurons death in brain slices,cerebellar tissue slices,prevented MPP^+-induced neuronal death
same,MPP+-induced CNS cells death and neurons death in brain slices,cerebellar tissue slices; listed as BHDPCs,attenuated
